The structures appear in SMILES notation. Converted amounts (≈) assume the structure as drawn.

The subject of series [1] is Escherichia coli (ATCC 11775). Description: MIC, serial broth dilution. The note with it: MHB, 18 h, 37° C. It is filed as cell-based. More on the design: MIC E. coli. (ATCC 11775): unit not given here. Here is the method: (§1) The peptidomimetics designed in present invention were evaluated as antibacterial therapeutics against a broad range of bacterial strains by broth microdilution method. The antibacterial activity of the peptidomimetics was reported in terms of the minimum inhibitory concentrations (MIC).
(§2) Following bacterial strains were used in this study: S. aureus (ATCC 29213), methicillin resistant S. aureus (ATCC 33591), Staphylococcus epidermidis (ATCC 12228), methicillin resistant Staphylococcus epidermidis(ATCC 51625), Enterococcus faecalis (ATCC 7080), Escherichia coli (ATCC 11775), and Acinetobacter baumannii (ATCC 19606). Antibacterial activity was evaluated using a modified serial broth dilution method in accordance with Clinical Laboratory Standard Institute guidelines [Methods for dilution antimicrobial susceptibility tests for bacteria that grow aerobically-7th ed. Approved standard M7-A7. Clinical and Laboratory Standards Institute, Wayne, Pa., Biochim. Biophys. Acta 1798:1864-1875, 2010.]. Briefly, the inoculums were prepared from mid-log phase bacterial cultures. Peptidomimetics were incubated with bacterial suspension in Muller Hinton broth media (10^5 CFU/mL) in 96 well microtitre plate. The plates were incubated overnight with agitation (200 rpm) at 37° C. After 18 h, absorbance was measured at 630 nm. Cultures without test peptidomimetics were used as positive control. Un-inoculated Mueller Hinton Broth (MHB) was used as negative control. Tests were carried out in duplicate on at least three different days. […] For comparison standard peptide antibiotics vancomycin (VAN) and polymyxin B (PMB) were also assayed under identical conditions (Table 2). […] Further, antibacterial activity of active peptidomimetics 1c and 1d were also evaluated against MRSA in presence of 25% v/v human serum as well as bovine serum.

Series [2] has as its system Staphylococcus epidermidis (ATCC 12228). The experiment in a line: MIC, serial broth dilution. It is filed as cell-based. The note with it: MHB, 18 h, 37° C. Here is the method: as §1, §2
The subject of series [3] is Enterococcus faecalis (ATCC 7080). Description: MIC, serial broth dilution. It is filed as cell-based. The note with it: MHB, 18 h, 37° C. As to the method:
as §1, §2

Series [4] relates to methicillin resistant Staphylococcus epidermidis (ATCC 51625). The experiment in a line: MIC, serial broth dilution. It is filed as cell-based. The following applies: MHB, 18 h, 37° C. As to the method: as §1, §2
On the technique in general: In broth dilution the organism is exposed to a series of concentrations in liquid medium.

The subject of series [5] is Acinetobacter baumannii (ATCC 19606). Description: MIC, serial broth dilution. The following applies: MHB, 18 h, 37° C. It is filed as cell-based. As to the method: as §1, §2
For another series, the system named is MRSA. The experiment in a line: Membrane depolarization with DiSC3(5) dye. The note with it: up to the highest concentration tested. It is filed as cell-based, Staphylococcus aureus. As to the method:
For determination of membrane depolarizing ability of designed peptidomimetics, a membrane potential sensitive dye DiSC3(5) was used as described previously with minor modifications [Org Biomol. Chem. 10: 8326-8335, 2012; J. Am. Chem. Soc., 132: 18417-18428, 2010.]. Briefly, overnight grown MRSA was sub cultured into MHB for 2-3 h at 37° C. to obtain mid-log phase cultures. The cells were centrifuged at 4000 rpm for 10 min at 25° C., washed, and re-suspended into respiration buffer (5 mM HEPES, 20 mM glucose, pH 7.4) to obtain a diluted suspension of OD600˜0.05. Then DiSC3(5) [0.18 μM in DMSO], was added to 500 μL aliquotes of the re-suspended cells and allowed to stabilize for 1 h. Baseline fluorescence was acquired using a Edinburg F900 spectrofluorometer by excitation at 622 nm and emission at 670 nm in a 1 cm path length cuvette. Bandwidth of 5 nm was employed for excitation and emission. Subsequently, increasing concentrations of test peptidomimetics were added to the stabilized cells and the increase of fluorescence on account of the de-quenching of DiSC3(5) dye was measured after every 2 min to obtain the maximal depolarization. Increase in relative fluorescence unit (RFU) was plotted against increasing concentrations of different peptidomimetics or PMB. […] The increase in fluorescence for lipid tagged peptidomimetics was concentration dependent up to 9.9 μg/mL and henceforth, got saturated resulting into plateau like dose response curves. The experiment was repeated twice on two consecutive days and produced similar results.

The test system of series [6] is human red blood cells (hRBC). Description: Hemolytic activity. The following applies: 250 μg/mL, 1 h at 37° C. It is filed as cell-based. Here is the method: Hemolytic activity of the peptidomimetics was evaluated on human red blood cells (hRBC) as described previously with minor modifications [FEBS J, 273:4040-4054, 2006; Biochim Biophys Acta., 1798:1864-1875, 2010]. Briefly, 100 μL of fresh hRBC suspension 4% v/v in NaCl/Pi (35 mM phosphate buffer, 150 mM NaCl, pH 7.2) was placed in a 96-well plate. After incubation of the peptidomimetics (100 μL) in the hRBC suspension for 1 h at 37° C., the plates were centrifuged and supernatant (100 μL) was transferred to fresh 96-well plate. Absorbance was read at 540 nm using ELISA plate reader (Molecular Devices). Percent hemolysis was calculated using the following formula: % hemolysis=100[(A−A0)/(At−A0)]
Where, A represents absorbance of sample wells at 540 nm. Also A0 and At represents 0% and 100% hemolysis determined in NaCl/Pi and 1% Triton X-100, respectively (Table 2). […] Peptidomimetics 1e and 1f caused 31% and 30% hemolysis at 250 μg/mL. Peptidomimetics 2d, 2e and 2f caused significant hemolysis with 83%, 96% and 88% damage to hRBCs at […] respectively.

For another series, the system named is S. aureus (ATCC 29213). The experiment in a line: MIC, serial broth dilution. It is filed as cell-based, Staphylococcus aureus. The following applies: MHB, 18 h, 37° C. As to the method: as §1, §2
Series [7] deals with methicillin resistant S. aureus (ATCC 33591). The experiment in a line: MIC, serial broth dilution. It is filed as cell-based, Staphylococcus aureus. The note with it: MHB, 18 h, 37° C. Here is the method:
as §1, §2

`CCCCCCCCCCCC(=O)NC(Cc1c[nH]c2ccccc12)C(=O)NC(Cc1c[nH]c2ccccc12)C(=O)NCCCNCCCCNCCCN` (stereo not drawn) [1e]: the “MIC E. coli. (ATCC 11775)” value in series [1] is on record as 14.2. Also, the “MIC S. epidermidis (ATCC 12228)” value in series [2] was 1.7 µg/mL (≈ 2.25 µM). In addition, the “MIC E. facaelis (ATCC 7080)” value in [3] is 7.1 µg/L (≈ 0.00938 µM). Further, in series [4], the “MIC MRSE (ATCC 51625)” value stood at 1.7 µg/L (≈ 0.00225 µM). Moreover, the “MIC A. baumannii (ATCC 19606)” value in series [5] was determined as 56.8 µg/L (≈ 0.075 µM). Also, in the series on MRSA, the “change in relative fluorescence unit (RFU), membrane depolarization” value (from here on “change in relative fluorescence unit”) is reported as “significant changes in RFU”. Besides, the “% H, percentage hemolysis of human RBCs” value in series [6] turned out to be 31%. Moreover, the “MIC S. aureus (ATCC 29213)” value against S. aureus (ATCC 29213) was determined as 1.7 µg/L (≈ 0.00225 µM). For the same compound, the “MIC MRSA (ATCC 33591)” value in [7] stood at 3.5 µg/mL (≈ 4.62 µM).
As for `CCCCCCCCCCCC(=O)NCCCN(CCCCN(CCCN)C(=O)C(N)Cc1c[nH]c2ccccc12)C(=O)C(N)Cc1c[nH]c2ccccc12` (stereo not drawn) [2e], the “MIC E. coli. (ATCC 11775)” value in series [1] is recorded as 28.4. Moreover, the “MIC S. epidermidis (ATCC 12228)” value in series [2] amounted to 0.8 µg/mL (≈ 1.06 µM). Further, the “MIC E. facaelis (ATCC 7080)” value in series [3] came out at 7.1 µg/L (≈ 0.00938 µM). In [4], the “MIC MRSE (ATCC 51625)” value worked out at 1.7 µg/L (≈ 0.00225 µM). Also, the “MIC A. baumannii (ATCC 19606)” value in [5] amounted to 113.6 µg/L (≈ 0.15 µM). In the series with MRSA, the “change in relative fluorescence unit” value was “significant changes in RFU”. Further, the “% H, percentage hemolysis of human RBCs” value in [6] was determined as 96%. Moreover, in the series with S. aureus (ATCC 29213), the “MIC S. aureus (ATCC 29213)” value came to 0.8 µg/L (≈ 0.00106 µM). Further, in [7], the “MIC MRSA (ATCC 33591)” value amounted to 1.7 µg/mL (≈ 2.25 µM).
`CCCCCC=CCC=CCCCCCCCC(=O)NCCCN(CCCCN(CCCN)C(=O)C(N)Cc1c[nH]c2ccccc12)C(=O)C(N)Cc1c[nH]c2ccccc12` (stereo not drawn) [2f]: in series [1], the “MIC E. coli. (ATCC 11775)” value came to 28.4. Also, the “MIC S. epidermidis (ATCC 12228)” value in series [2] was 0.8 µg/mL (≈ 0.956 µM). The “MIC E. facaelis (ATCC 7080)” value in series [3] was 14.2 µg/L (≈ 0.017 µM). The “MIC MRSE (ATCC 51625)” value in series [4] was determined as 1.7 µg/L (≈ 0.00203 µM). Moreover, the “MIC A. baumannii (ATCC 19606)” value in series [5] was determined as 56.8 µg/L (≈ 0.0678 µM). The “change in relative fluorescence unit” value with MRSA is listed as “significant changes in RFU”. Further, the “% H, percentage hemolysis of human RBCs” value in [6] came out at 88%. Also, the “MIC S. aureus (ATCC 29213)” value in the series on S. aureus (ATCC 29213) was 0.8 µg/L (≈ 0.000956 µM). For the same compound, the “MIC MRSA (ATCC 33591)” value in [7] came out at 3.5 µg/mL (≈ 4.18 µM).
Turning to `NCCCNCCCCNCCCNC(=O)C(Cc1c[nH]c2ccccc12)NC(=O)C(Cc1c[nH]c2ccccc12)NC(=O)C=Cc1ccc(O)c(O)c1` (stereo not drawn) [1b], the “MIC E. coli. (ATCC 11775)” value in series [1] is given as 14.2. Besides, the “MIC S. epidermidis (ATCC 12228)” value in series [2] is 3.5 µg/mL (≈ 4.75 µM). Also, the “MIC E. facaelis (ATCC 7080)” value in series [3] turned out to be 113.6 µg/L (≈ 0.154 µM). Moreover, the “MIC MRSE (ATCC 51625)” value in series [4] is 7.1 µg/L (≈ 0.00963 µM). In addition, the “% H, percentage hemolysis of human RBCs” value in [6] is given as 16%. Besides, the “MIC S. aureus (ATCC 29213)” value with S. aureus (ATCC 29213) came to 3.5 µg/L (≈ 0.00475 µM). Also, in series [7], the “MIC MRSA (ATCC 33591)” value is 7.1 µg/mL (≈ 9.63 µM).
Turning to `CCCCCCCCCC(=O)NCCCN(CCCCN(CCCN)C(=O)C(N)Cc1c[nH]c2ccccc12)C(=O)C(N)Cc1c[nH]c2ccccc12` (stereo not drawn) [2d], the “MIC E. coli. (ATCC 11775)” value in series [1] is on record as 28.4. For the same compound, in series [2], the “MIC S. epidermidis (ATCC 12228)” value is 0.8 µg/mL (≈ 1.1 µM). The “MIC E. facaelis (ATCC 7080)” value in series [3] was 28.4 µg/L (≈ 0.039 µM). Further, the “MIC MRSE (ATCC 51625)” value in series [4] was found to be 1.7 µg/L (≈ 0.00233 µM). In addition, the “MIC A. baumannii (ATCC 19606)” value in series [5] came to 113.6 µg/L (≈ 0.156 µM). In addition, in the series with MRSA, the “change in relative fluorescence unit” value was “intermediate changes in fluorescence intensity”. Also, the “% H, percentage hemolysis of human RBCs” value in series [6] worked out at 83%. In the series on S. aureus (ATCC 29213), the “MIC S. aureus (ATCC 29213)” value worked out at 0.8 µg/L (≈ 0.0011 µM). Moreover, the “MIC MRSA (ATCC 33591)” value in series [7] came to 1.7 µg/mL (≈ 2.33 µM).
Take `CCCCCC=CCC=CCCCCCCCC(=O)NC(Cc1c[nH]c2ccccc12)C(=O)NC(Cc1c[nH]c2ccccc12)C(=O)NCCCNCCCCNCCCN` (stereo not drawn) [1f]: in [1], the “MIC E. coli. (ATCC 11775)” value came out at 28.4. Moreover, the “MIC S. epidermidis (ATCC 12228)” value in series [2] came to 1.7 µg/mL (≈ 2.03 µM). In [3], the “MIC E. facaelis (ATCC 7080)” value came to 28.4 µg/L (≈ 0.0339 µM). For the same compound, the “MIC MRSE (ATCC 51625)” value in [4] was 7.1 µg/L (≈ 0.00848 µM). Moreover, the “change in relative fluorescence unit” value in the series with MRSA was “significant changes in RFU”. The “% H, percentage hemolysis of human RBCs” value in series [6] stood at 30%. Moreover, the “MIC S. aureus (ATCC 29213)” value against S. aureus (ATCC 29213) came to 7.1 µg/L (≈ 0.00848 µM). Further, in series [7], the “MIC MRSA (ATCC 33591)” value worked out at 3.5 µg/mL (≈ 4.18 µM).

For the origin of these results see US9738684B2, “N-terminally modified linear and branched polyamine conjugated peptidomimetics as antimicrobials agents” (COUNCIL OF SCIENTIFIC & INDUSTRIAL RESEARCH, priority 2015, dated 2017).
